Data reported in ChEMBL document CHEMBL1201862, “PubChem BioAssay data set” (2004).
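The compound was tested at five concentrations on cells cultured in 96-well plates, with a 48-hour exposure period. The concentration for 50% growth inhibition is given as GI50.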 Activity calls are given as the source filed them. Cut-off read from the data, not from the text of the source: active = GI50 up to about 1.1 µM and inactive = higher.

Legend:
Test in all cases: growth of human tumour cells (NCI), 48 h
RPMI-8226 = system: RPMI-8226
TK-10 = system: TK-10
MCF7 = system: MCF7
UACC-62 = system: UACC-62
SF-268 = system: SF-268
SR = system: SR
SF-295 = system: SF-295
EKVX = system: EKVX
HCC 2998 = system: HCC 2998
CAKI-1 = system: CAKI-1
HT-29 = system: HT-29
HL-60 = system: HL-60
NCI-H226 = system: NCI-H226
UO-31 = system: UO-31
Hs-578T = system: Hs-578T
T47D = system: T47D
CCRF-CEM = system: CCRF-CEM
LOX IMVI = system: LOX IMVI
OVCAR-4 = system: OVCAR-4
SN12C = system: SN12C

Measured: GI50

CN1CCC(OC(=O)Oc2ccccc2)(c2ccccc2)CC1
inactive: RPMI-8226 15.5 µM | TK-10 19.1 µM | MCF7 20 µM | UACC-62 21.5 µM | SF-268 37.1 µM | SR 15.9 µM | SF-295 24 µM | EKVX 45.8 µM | HCC 2998 19.6 µM | CAKI-1 77.3 µM | HT-29 4.51 µM | HL-60 16.5 µM | NCI-H226 22.7 µM | UO-31 19.6 µM | Hs-578T 28.5 µM | T47D 26.6 µM | CCRF-CEM 21.8 µM | LOX IMVI 17.8 µM | OVCAR-4 18.3 µM | SN12C 15.4 µM

CCOP(=O)(OCC)OC1CC(n2cc(C)c(=O)n(C)c2=O)OC1CO[Si](C)(C)C(C)(C)C (stereo not given)
inactive: RPMI-8226 25.2 µM | TK-10 > 100 µM | MCF7 73.1 µM | UACC-62 > 100 µM | SF-268 > 100 µM | SR 37.7 µM | SF-295 67 µM | EKVX 24.4 µM | HCC 2998 62.4 µM | CAKI-1 > 100 µM | HT-29 > 100 µM | HL-60 18.1 µM | NCI-H226 > 100 µM | UO-31 2.9 µM | Hs-578T 46.6 µM | T47D 17.8 µM | CCRF-CEM 61.2 µM | LOX IMVI > 100 µM | OVCAR-4 > 100 µM | SN12C 7.06 µM

Cc1c2c(n(CCc3ccc(Cl)cc3)c1C)NC(c1ccccc1)C(C#N)S2(=O)=O (stereo not given)
inactive: RPMI-8226 3.51 µM | TK-10 > 100 µM | MCF7 5.14 µM | UACC-62 36.6 µM | SF-268 40.2 µM | SR 3.22 µM | SF-295 > 53.5 µM | EKVX 31.3 µM | HCC 2998 > 100 µM | CAKI-1 > 100 µM | HT-29 11.9 µM | HL-60 7 µM | NCI-H226 > 59.7 µM | UO-31 13.9 µM | Hs-578T 26.1 µM | T47D 17.9 µM | CCRF-CEM 2.08 µM | LOX IMVI 24.5 µM | OVCAR-4 > 70.1 µM | SN12C > 72.1 µM

CSCCC(NC(=O)OC(C)(C)C)C(=O)NCCNc1ccc(NCCNC(=O)C(CCSC)NC(=O)OC(C)(C)C)c2c1C(=O)c1ccccc1C2=O (stereo not given)
inactive: RPMI-8226 3.01 µM | TK-10 3.38 µM | MCF7 6.01 µM | UACC-62 3.8 µM | SF-268 3.37 µM | SR 2.83 µM | SF-295 7.57 µM | EKVX 8.11 µM | HCC 2998 2.32 µM | CAKI-1 4.75 µM | HT-29 2.64 µM | HL-60 3.01 µM | NCI-H226 6.76 µM | UO-31 > 100 µM | Hs-578T 2.39 µM | T47D 5.21 µM | CCRF-CEM 3.56 µM | LOX IMVI 7.74 µM | OVCAR-4 6.7 µM | SN12C 7.71 µM

O=C(Nc1c(C(F)(F)F)cc(-c2ccccc2)[nH]c1=O)N1CCOCC1
inactive: RPMI-8226 26.9 µM | TK-10 > 100 µM | MCF7 > 100 µM | UACC-62 > 100 µM | SF-268 > 100 µM | SR 54.3 µM | SF-295 62.1 µM | EKVX 40.2 µM | HCC 2998 > 100 µM | CAKI-1 > 100 µM | HT-29 > 100 µM | HL-60 26.9 µM | NCI-H226 > 100 µM | UO-31 > 100 µM | Hs-578T > 100 µM | T47D > 100 µM | CCRF-CEM 46.3 µM | LOX IMVI > 100 µM | OVCAR-4 47.8 µM | SN12C > 100 µM

c1ccc2nc3c(nc2c1)sc1ccccc13
inactive: RPMI-8226 > 100 µM | TK-10 19.3 µM | MCF7 26.5 µM | UACC-62 14.9 µM | SF-268 20.7 µM | SR 41.2 µM | SF-295 30.7 µM | EKVX 16.1 µM | HCC 2998 32.9 µM | CAKI-1 9.25 µM | HT-29 39.4 µM | HL-60 > 100 µM | NCI-H226 18.6 µM | UO-31 23.7 µM | Hs-578T 30.5 µM | T47D > 100 µM | CCRF-CEM 30.9 µM | LOX IMVI 19.3 µM | OVCAR-4 17.5 µM | SN12C 34 µM

COc1ccccc1C1Nn2c(nc3ccccc3c2=O)N1c1ccc(C)cc1 (stereo not given)
inactive: RPMI-8226 3.72 µM | TK-10 6.41 µM | MCF7 6.49 µM | UACC-62 9.31 µM | SF-268 6.85 µM | SR 1.38 µM | SF-295 4.94 µM | EKVX 11.4 µM | HCC 2998 3.8 µM | CAKI-1 7.83 µM | HT-29 7.78 µM | HL-60 10.6 µM | NCI-H226 2.77 µM | UO-31 6.73 µM | Hs-578T 10 µM | T47D 4.82 µM | CCRF-CEM 1.82 µM | LOX IMVI 7.62 µM | OVCAR-4 3.08 µM | SN12C 5.87 µM
